Each structure is given as a SMILES string.

Data set [1] in a line: pH dependence of stability in aqueous solution. It is filed as physicochemical. The following applies: monohydrochloride. The method, then:
(§1) The solubility of valganciclovir hydrochloride (active pharmaceutical ingredient, API) in aqueous solution is pH dependent. […] Valganciclovir hydrochloride is freely soluble under acidic conditions with a maximum solubility of greater than 200 mg/mL in the pH range of 4-6. The stability of valganciclovir hydrochloride is greatest at a pH<3.8.
The following excipients were used to prepare the formulations of Type I. Citric acid anhydrous was combined with sodium citrate to form the buffer system to ensure an acidic pH. […] Sodium benzoate was used as a preservative agent and sodium saccharin was used as an artificial sweetening agent. Maltose, a crystalline disaccharide carbohydrate, was used as a bulking agent (diluent) and to provide desirable mouth feel and sweetness. Strawberry flavor was used as the flavor of the oral solution.

A further data set is described as follows: physchem. It is filed as physicochemical. The protocol:
as §1

Another data set is described as follows: pKa. Format: physicochemical. The method, then:
as §1

The format of data set [2] is physicochemical. The following applies: pH 7. The protocol:
as §1

The nature of data set [3]: Hygroscopicity on exposure to relative humidity. Format: physicochemical. The following applies: exposed to 80% relative humidity. An excerpt: Valganciclovir hydrochloride is moderately hygroscopic, with only small changes in moisture observed when the valganciclovir hydrochloride is exposed to moderate relative humidity. A weight gain of up to approximately 3% occurs when the valganciclovir hydrochloride is exposed to 80% relative humidity (for a total moisture content of up to approximately 8%). It is reversibly hygroscopic and will either absorb or release moisture under ambient humidity conditions, depending on the water content of the valganciclovir hydrochloride and the relative humidity.

For the molecule `CC(C)[C@H](N)C(=O)OCC(CO)OCn1cnc2c(=O)[nH]c(N)nc21.Cl` (stereo partly drawn) [valganciclovir hydrochloride, L-Valine, 2-[(2-amino-1,6-dihydro-6-oxo-9H-purin-9-yl)methoxy]-3-hydroxypropyl ester, monohydrochloride], the “pH at which stability is greatest” value in data set [1] (listed as valganciclovir) is on record as not above 3.8; in data set [1], less than 3.8. Further, the solubility (as a rule, the dissolved amount per volume that the medium holds) in the data set “physchem” (25 °C, pH 7, water) was 70 mg/mL; in the data set “physchem” (aqueous buffer), more than 200 mg/mL. The solubility in water in “physchem” (pH 7) stood at 70 mg/mL. Moreover, the pKa (usually the negative logarithm of the acid dissociation constant) in the data set “pKa” was determined as 7.6. In data set [2], this molecule displayed a n-octanol/water partition coefficient of 0.0095. The same molecule showed a total moisture content in data set [3] not above 8%. In data set [3], this molecule gave a weight gain not above 3%.

The values are drawn from US11185588B2, “Pharmaceutical dosage forms comprising valganciclovir hydrochloride” (Hoffmann-La Roche Inc., priority 2006, dated 2021).
